Molecules are shown by their SMILES. “And” between values parts separate entries of the source, which are not always exact repeats. Identical values can stand only once. Like-named read-outs stand apart in the source and are kept apart here.

Series [1] addresses T1, ER-alpha (Homo sapiens, UniProt P03372).
T1 construct: expressed in transfected cells; host or cells: HEK-293
T1 sequence (P03372 1-595): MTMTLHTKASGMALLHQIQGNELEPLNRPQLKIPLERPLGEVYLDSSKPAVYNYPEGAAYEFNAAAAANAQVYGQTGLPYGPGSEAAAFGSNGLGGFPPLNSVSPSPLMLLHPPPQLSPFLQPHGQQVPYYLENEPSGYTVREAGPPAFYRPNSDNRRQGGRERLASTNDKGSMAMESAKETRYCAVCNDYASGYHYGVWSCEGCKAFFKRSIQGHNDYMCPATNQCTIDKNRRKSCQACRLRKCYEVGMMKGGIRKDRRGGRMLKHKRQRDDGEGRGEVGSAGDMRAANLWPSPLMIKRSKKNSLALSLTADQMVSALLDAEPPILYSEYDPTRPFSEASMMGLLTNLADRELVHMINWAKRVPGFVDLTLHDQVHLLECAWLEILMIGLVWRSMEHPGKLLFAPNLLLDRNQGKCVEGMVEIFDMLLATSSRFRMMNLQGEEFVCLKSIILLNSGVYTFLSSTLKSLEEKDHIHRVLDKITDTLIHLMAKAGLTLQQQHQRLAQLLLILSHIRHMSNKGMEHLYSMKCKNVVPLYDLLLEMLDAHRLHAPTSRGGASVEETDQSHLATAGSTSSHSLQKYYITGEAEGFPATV
The experiment in a line: ER-alpha transactivation (ERE-LUC luciferase) in HEK-293 cells.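 As to all read-outs here: HEK-293 cells co-transfected with an ER-alpha expression plasmid, an ERE-driven firefly luciferase reporter and a CMV Renilla control, with the firefly signal normalized to Renilla.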 The series is classed as cell-based. As to conditions: for EC50 / Agonist ER-α, % of E2: agonist mode; for EC50: drug alone, read-out: Agonist ER-α; for IC50: in combination with estradiol, read-out: Antagonist ER-α.

For series [2], the target named is T2, ER-beta (Homo sapiens, UniProt Q92731).
T2 construct: expressed in transfected cells; host or cells: HEK-293
The experiment in a line: ER-beta transactivation (ERE-LUC luciferase) in HEK-293 cells.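 As to all read-outs here: HEK-293 cells transiently transfected with an ER-β expression plasmid and ERE-LUC reporter, firefly luciferase read-out normalized to co-transfected Renilla luciferase.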 It is filed as cell-based. As to conditions: for EC50: drug alone, read-out: Agonist ER-β; for Antagonist ER-β, % of E2 / IC50: antagonist mode; for IC50: in combination with estradiol, read-out: Antagonist ER-β.

The target of series [3] is T3, AKR1C3 (Homo sapiens, UniProt P42330).
T3 sequence (P42330 1-323): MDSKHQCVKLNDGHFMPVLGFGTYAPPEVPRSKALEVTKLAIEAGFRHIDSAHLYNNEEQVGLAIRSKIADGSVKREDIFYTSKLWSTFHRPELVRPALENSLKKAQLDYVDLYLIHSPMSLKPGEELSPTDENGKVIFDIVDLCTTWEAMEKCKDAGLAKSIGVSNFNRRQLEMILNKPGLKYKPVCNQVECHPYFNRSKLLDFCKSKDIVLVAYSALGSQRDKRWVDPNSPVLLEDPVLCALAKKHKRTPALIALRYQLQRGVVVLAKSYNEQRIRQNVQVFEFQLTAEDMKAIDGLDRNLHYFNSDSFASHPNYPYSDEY
The experiment in a line: Purified AKR1C3 enzyme assay, [14C]-A'dione to testosterone, TLC based. The series is classed as biochemical. The arrangement: GST (N); made in house; host or cells: bacterial culture, IPTG induced (E. coli BL21-DE3 is named only for the crystallography preparation). As to the method:
Perkin Elmer; […] American Radiolabeled Chemicals, St. Louis, Mo.). The reaction was stopped by the addition of 400 μl ethyl acetate, vortexed, and spun for […] at 2000 rpm. The upper layer was transferred to a new tube and air dried. The pellet was resuspended in 25 μl of methanol, spotted on TLC plates and fractionated in TLC chamber with 3:1 chloroform:ethyl acetate. Once the mobile phase reached the top, the plates were dried and exposed to a phosphoimager screen overnight. […] Perkin Elmer) was incubated at 37° C. for 60 min. The reaction was stopped by the addition of 400 μl ethyl acetate, vortexed, and spun for […] at 2000 rpm. The upper layer was transferred to a new tube and air dried. The pellet was resuspended in 25 μl of methanol, spotted on TLC plates and fractionated in TLC chamber with 3:1 chloroform:ethyl acetate. Once the mobile phase reached the top, the plates were dried and exposed to a phosphoimager screen overnight.

Series [4] addresses T3, AKR1C3. The experiment in a line: cell-based.
Protocol: AKR1C3 expression was checked by Western blot to ensure that the cells over-express AKR1C3. […] Medium was changed to RPMI+1% csFBS without phenol red and maintained in this medium for 3 days to reduce basal hormone levels. […] The data was plotted in SigmaPlot (Systat Software Inc.) and the IC50 values for inhibitors were calculated.
HEK-293 cells stably transfected with AKR1C3 were plated in 24 well plates and were maintained in RPMI+1% csFBS without phenol red for 2 days to reduce the basal steroid levels.
Series [5] can be described thus: Liver microsome incubation (HLM Phase I and Phase I + II), LC-MS/MS. The series is classed as in vitro ADME, human. As to conditions: for microsomal CLint: human, human liver microsomes. As to the method: Stock solutions of prespective AKR1C3 inhibitors were prepared in DMSO at 5 mM and were incubated with liver microsomes (0.1 mg/mL). Incubations were conducted at 37° C. in a shaking water bath for 10 minutes (microsomes). Incubation durations were selected based on time course study (microsomes) or published literature (recombinant enzymes). Prepared samples were analyzed using LC-MS/MS.

Series [6] concerns the target ER-β (Homo sapiens, UniProt Q92731). The experiment in a line: ER-β ligand binding domain competitive binding with [3H]Estradiol.
Where [7] appears, read: 10 μM inhibitor, purified AKR1C3 TLC based enzyme assay, read-out: AKR1C3 inhibition at 10 μM.
Where [8] appears, read: read-out: % inhibition from control HSD-5 (10 uM).
[9] abbreviates: HLM Phase I + II, read-out: HLM Phase I + II CLint.

T2 sequence (Q92731 whole entry, species assumed): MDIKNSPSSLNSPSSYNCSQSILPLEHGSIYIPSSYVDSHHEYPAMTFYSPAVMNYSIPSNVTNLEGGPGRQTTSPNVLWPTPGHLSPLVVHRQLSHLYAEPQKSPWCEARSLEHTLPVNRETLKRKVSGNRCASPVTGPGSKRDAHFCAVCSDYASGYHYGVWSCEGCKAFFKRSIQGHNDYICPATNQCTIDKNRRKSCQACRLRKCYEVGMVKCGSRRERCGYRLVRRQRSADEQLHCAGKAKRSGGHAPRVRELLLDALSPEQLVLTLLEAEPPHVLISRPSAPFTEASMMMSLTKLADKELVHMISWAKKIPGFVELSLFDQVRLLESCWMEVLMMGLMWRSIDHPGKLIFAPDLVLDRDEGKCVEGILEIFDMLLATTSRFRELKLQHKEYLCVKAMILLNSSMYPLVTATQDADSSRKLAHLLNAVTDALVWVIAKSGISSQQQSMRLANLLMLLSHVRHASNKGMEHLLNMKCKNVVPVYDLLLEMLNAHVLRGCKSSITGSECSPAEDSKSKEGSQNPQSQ
Chain of ER-β (Q92731 264-498 limits assumed, species assumed): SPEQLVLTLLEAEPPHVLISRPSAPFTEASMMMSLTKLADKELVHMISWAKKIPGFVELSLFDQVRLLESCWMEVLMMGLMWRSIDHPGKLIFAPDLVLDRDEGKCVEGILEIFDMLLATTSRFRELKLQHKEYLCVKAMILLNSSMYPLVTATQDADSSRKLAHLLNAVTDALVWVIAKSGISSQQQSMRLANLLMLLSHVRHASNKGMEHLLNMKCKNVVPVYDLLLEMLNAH

Consider `CNS(=O)(=O)c1ccc(-c2cn(-c3ccc(O)cc3)c(=O)c3ccc(O)cc23)cc1` [Compound 36, 4-(6-hydroxy-2-(4-hydroxyphenyl)-1-oxo-1,2-dihydroisoquinolin-4-yl)-N-methylbenzenesulfonamide], for which the EC50 in series [1] and in series [2] (agonist mode) was over 10000 nM in each case. Further, the IC50 in series [1] (antagonist mode) is over 10000 nM. The inhibition at 10 µM in series [3] (setting [7]) and in series [3] (setting [8]) was 20% throughout.

Turning to `N#Cc1cc(O)cc2c(-c3cc(F)c(F)c(F)c3)cn(-c3ccc(O)cc3)c(=O)c12` [Compound 85, 6-hydroxy-2-(4-hydroxyphenyl)-1-oxo-4-(3,4,5-trifluorophenyl)-1,2-dihydroisoquinoline-8-carbonitrile], in series [1] (@10k nM), the “Agonist ER-α, % of E2” value is 36.5% of E2 @10k nM. In addition, the IC50 is over 10000 nM in series [1] (antagonist mode) and 141 nM in series [4]. Also, in series [2] (agonist mode), the EC50 was over 10000 nM. Also, the “Antagonist ER-β, % of E2” value in series [2] (@1000 nM) is given as 59.7% of E2 @1000 nM. In addition, the inhibition at 10 µM in series [3] (setting [7]) and in series [3] (setting [8]) was 86% in each case.

In the case of `O=c1c2ccc(O)cc2c(-c2ccccc2)cn1-c1ccc(O)cc1` [Compound 15a, 6-hydroxy-2-(4-hydroxyphenyl)-4-phenylisoquinolin-1(2H)-one], the “HLM Phase I T-1/2” value in series [5] (HLM Phase I) is reported as 152.8 min. Further, in series [5] (HLM Phase I + II), the “HLM Phase I + II T-1/2” value worked out at 23.3 min. Moreover, the microsomal CLint in series [5] (setting [9]) amounted to 29.7 µL/min/mg; in series [5] (HLM Phase I, read-out: HLM Phase I CLint), 4.5 µL/min/mg. Moreover, the affinity in series [6], expressed as Ki, was 130 nM. In series [2] (agonist mode), the EC50 was over 10000 nM. Further, the IC50 in series [2] was found to be 918 nM; in series [4], 16100 nM. The inhibition at 10 µM in series [3] (setting [8]) was determined as 0%.

For the molecule `COC(=N)c1cc(O)cc2c(-c3cc(F)c(F)c(F)c3)cn(-c3ccc(O)cc3)c(=O)c12` [Compound 100, Methyl 6-hydroxy-2-(4-hydroxyphenyl)-1-oxo-4-(3,4,5-trifluorophenyl)-1,2-dihydroisoquinoline-8-carbimidate], the inhibition at 10 µM in series [3] (setting [7]) and in series [3] (setting [8]) was 20% each time.

`N#Cc1cc(O)cc2c(-c3ccc(C(F)(F)F)c(F)c3)cn(-c3ccc(O)cc3)c(=O)c12` [Compound 102, 4-(3-Fluoro-4-(trifluoromethyl)phenyl)-6-hydroxy-2-(4-hydroxyphenyl)-1-oxo-1,2-dihydroisoquinoline-8-carbonitrile]: the inhibition at 10 µM in series [3] (setting [7]) and in series [3] (setting [8]) was 10% in each case.

The molecule `C[C@@H]1O[C@@H](OC[C@H]2O[C@@H](Oc3c(-c4ccc(O)c(O)c4)oc4cc(O)cc(O)c4c3=O)[C@H](O)[C@@H](O)[C@@H]2O)[C@H](O)[C@H](O)[C@H]1O` [Rutin, reference compound] registered an IC50 in series [4] of over 10000 nM.

Molecule `O=C(O)c1cccc(Nc2ccc(C(F)(F)F)cc2)c1` [DKB-476-065] showed an IC50 in series [4] of 154 nM.

In the case of `COC(=N)c1cc(O)cc2c(-c3ccc(C(F)(F)F)c(F)c3)cn(-c3ccc(O)cc3)c(=O)c12` [Compound 102A, Methyl 4-(3-fluoro-4-(trifluoromethyl)phenyl)-6-hydroxy-2-(4-hydroxyphenyl)-1-oxo-1,2-dihydroisoquinoline-8-carbimidate], the inhibition at 10 µM in series [3] (setting [7]) and in series [3] (setting [8]) was 0% throughout.

As to `O=c1c2ccc(O)cc2c(-c2cc(F)c(F)c(F)c2)cn1-c1ccc(O)cc1` [Compound 79, 6-hydroxy-2-(4-hydroxyphenyl)-4-(3,4,5-trifluorophenyl)isoquinolin-1(2H)-one], the “Agonist ER-α, % of E2” value in series [1] (@1000 nM) was 32.6% of E2 @1000 nM. For the same molecule, the “Antagonist ER-α, % of E2” value in series [1] (antagonist mode, @10k nM) is on record as 51% of E2 @10k nM. In addition, the “Agonist ER-β, % of E2” value in series [2] (agonist mode, @1000 nM) is on record as 45.0% of E2 @1000 nM. The “Antagonist ER-β, % of E2” value in series [2] (@10k nM) is given as 45.3% of E2 @10k nM. Moreover, the inhibition at 10 µM in series [3] (setting [7]) and in series [3] (setting [8]) was 44% in each case.

Take `COC(=O)c1ccc(-n2ccc3cc(O)ccc3c2=O)cc1CBr` [Compound 104A, methyl 2-(bromomethyl)-4-(6-hydroxy-1-oxoisoquinolin-2(1H)-yl)benzoate]: the inhibition at 10 µM in series [3] (setting [8]) came out at 5%.

In turn, `C/C=C/c1cn(-c2ccc(O)cc2)c(=O)c2c(O)cc(O)cc12` [Compound 15i] registered a Ki in series [6] of 1.66 nM. Besides, the EC50 in series [1] and in series [2] (agonist mode) was over 10000 nM each time. In addition, the IC50 in series [1] (antagonist mode) is 1970 nM and 1790 nM; in series [2] it was 32.2 nM and 66.3 nM. Further, in series [3] (setting [8]), the inhibition at 10 µM stood at 10%.

Consider `O=C(O)c1ccc(-c2cn(-c3ccc(O)cc3)c(=O)c3ccc(O)cc23)cc1` [Compound 43, 4-(6-hydroxy-2-(4-hydroxyphenyl)-1-oxo-1,2-dihydroisoquinolin-4-yl)benzoic acid], for which the EC50 in series [1] and in series [2] (agonist mode) was over 10000 nM each time. The IC50 in series [1] (antagonist mode) and in series [2] was over 10000 nM throughout. The inhibition at 10 µM in series [3] (setting [7]) and in series [3] (setting [8]) was 42% each time.

Consider `NC(=O)c1cc(O)cc2c(-c3cc(F)c(F)c(F)c3)cn(-c3ccc(O)cc3)c(=O)c12` [Compound 100A, 6-hydroxy-2-(4-hydroxyphenyl)-1-oxo-4-(3,4,5-trifluorophenyl)-1,2-dihydroisoquinoline-8-carboxamide], for which the inhibition at 10 µM in series [3] (setting [7]) and in series [3] (setting [8]) was 0% each time.

`COc1ccc2c(=O)n(-c3ccc(CO)c(OC)c3)cc(-c3ccc(C(F)(F)F)cc3)c2c1` [Compound 25, 2-(4-(hydroxymethyl)-3-methoxyphenyl)-6-methoxy-4-(4-(trifluoromethyl)phenyl)isoquinolin-1(2H)-one]: the inhibition at 10 µM in series [3] (setting [7]) turned out to be 0%.

With `CS(=O)(=O)c1ccc(-c2cn(-c3ccc(O)cc3)c(=O)c3ccc(O)cc23)cc1` [Compound 37, 6-hydroxy-2-(4-hydroxyphenyl)-4-(4-(methylsulfonyl)phenyl)isoquinolin-1(2H)-one], the “HLM Phase I T-1/2 (min)” value in series [5] (HLM Phase I) was “stable”. The “HLM Phase I + II T-1/2” value in series [5] (HLM Phase I + II) amounted to 3.8 min. In addition, the microsomal CLint in series [5] (setting [9]) amounted to 183 µL/min/mg. For the same molecule, the EC50 in series [1] and in series [2] (agonist mode) was over 10000 nM in each case. For the same molecule, the IC50 in series [1] (antagonist mode) is over 10000 nM. The inhibition at 10 µM in series [3] (setting [7]) and in series [3] (setting [8]) was 45% each time.

The molecule `COc1cc(C=CC(=O)O)cc(OC)c1OC` [3,4,5 trimethoxy cinnamic acid, reference compound] showed an IC50 in series [4] of over 10000 nM.

Consider `NC(=O)c1cc(O)cc2c(-c3ccc(C(F)(F)F)c(F)c3)cn(-c3ccc(O)cc3)c(=O)c12` [Compound 102B, 4-(3-fluoro-4-(trifluoromethyl)phenyl)-6-hydroxy-2-(4-hydroxyphenyl)-1-oxo-1,2-dihydroisoquinoline-8-carboxamide], for which the inhibition at 10 µM in series [3] (setting [7]) and in series [3] (setting [8]) was 0% throughout.

Consider `NC(=O)c1cccc(-n2cc(-c3ccc(C(F)(F)F)c(F)c3)c3cc(O)ccc3c2=O)c1` [Compound 214, 3-(4-(3-fluoro-4-(trifluoromethyl)phenyl)-6-hydroxy-1-oxoisoquinolin-2(1H)-yl)benzamide], for which the IC50 in series [4] was found to be 241 nM.

The record behind these values is patent US20130116277A1, “ALDO-KETO REDUCTASE SUBFAMILY 1C3 (AKR1C3) INHIBITORS” (priority 2007, published 2013).
